Here are results for 20 molecules from patent US7078178B2, “Methods of altering calcium transport” (priority 1999, dated 2006).

The test system of experiment [1] is CaT1 mRNA. Briefly: Northern analysis of CaT1 mRNA in rat duodenum in vivo. How it is done: Northern analysis procedures were as follows. Poly(A)^+ RNA (3 μg) from rat tissues were electrophoresed in formaldehyde-agarose gels and transferred to nitrocellulose membranes. The filters were probed with ^32P-labeled full-length CaT1 cDNA, hybridized at 42° C. with a solution containing 50% formamide, 5×SSPE, 2× Denhardt's solution, 0.1% SDS and 100 μg/ml denatured salmon sperm DNA (and washed with 5×SSC/0.1% SDS at 50° C. for 2×30 minutes and 0.1×SSC at 65° C. for 3×30 minutes. Autoradiography was performed at −80° C. for 1 to 2 days.

Experiment [2] deals with T1, CaT1 (Rattus norvegicus, UniProt Q9R186).
T1 construct: ID; No. 4; expressed in transfected cells; host or cells: Xenopus laevis oocytes injected with synthetic cRNA of the cloned rat cDNA
T1 sequence (Q9R186 41-767): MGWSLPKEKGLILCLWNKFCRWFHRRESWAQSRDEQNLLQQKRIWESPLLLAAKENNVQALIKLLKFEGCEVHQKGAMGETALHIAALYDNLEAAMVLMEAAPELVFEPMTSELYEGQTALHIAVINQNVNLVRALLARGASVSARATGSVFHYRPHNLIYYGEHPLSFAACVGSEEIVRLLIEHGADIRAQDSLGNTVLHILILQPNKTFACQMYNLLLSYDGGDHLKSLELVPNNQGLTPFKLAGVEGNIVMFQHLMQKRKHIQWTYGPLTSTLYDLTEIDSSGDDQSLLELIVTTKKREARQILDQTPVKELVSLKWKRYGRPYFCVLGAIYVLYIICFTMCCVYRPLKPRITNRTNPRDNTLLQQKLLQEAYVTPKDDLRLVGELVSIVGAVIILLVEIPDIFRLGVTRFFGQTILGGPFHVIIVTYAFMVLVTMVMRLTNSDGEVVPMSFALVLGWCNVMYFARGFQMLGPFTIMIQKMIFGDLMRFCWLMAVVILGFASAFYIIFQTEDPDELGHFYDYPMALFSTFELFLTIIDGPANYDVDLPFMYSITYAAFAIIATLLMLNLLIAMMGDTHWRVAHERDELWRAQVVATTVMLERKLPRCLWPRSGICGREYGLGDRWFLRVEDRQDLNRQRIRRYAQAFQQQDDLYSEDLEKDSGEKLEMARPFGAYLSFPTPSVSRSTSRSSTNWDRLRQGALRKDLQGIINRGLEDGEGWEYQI
The experiment can be described thus: ^45Ca^2+ uptake assay in Xenopus laevis oocytes expressing CaT1. The format is cell-based. As to conditions: for inhibition of ^45Ca^2+ uptake by di- and trivalent cations: 1 mM Ca^2+, cation 100 μM; for inhibition of ^45Ca^2+ uptake: cation 10 mM. The protocol: ^45Ca^2+ uptake assay—Defolliculated Xenopus laevis oocytes were injected with either 50 nl of water or RNA. ^45Ca^2+ uptake was assayed 3 days after injection of poly(A)^+ or 1–3 days a injection of synthetic complementary RNA (cRNA). For expression cloning, oocytes were incubated in modified Barth's solution supplemented with 1 mM SrCl2 (to avoid excessive loading of oocytes with Ca^2+) as well as penicillin, streptomycin and gentamycin at 1 mg/ml. Standard uptake solution contained the following components (in mM): NaCl 100, KCl 2, MgCl2 1, CaCl2 1 (including ^45Ca^2+), Hepes 10, pH 7.5. Uptake was performed at room temperature for 30 minutes (for the expression cloning procedure, 2 hour uptakes were employed), and oocytes were washed 6 times with ice-cold uptake medium plus 20 mM MgCl2. […] Control experiments were performed with the appropriate ethanol and DMSO concentrations. Unless stated specifically, data are presented as means obtained from at least three experiments with 7 to 10 oocytes per group with standard error of the mean (S.E.M.) as the index of dispersion. Statistical significance was defined as having a P value of less than 0.05 as determined by Student's t-test.

The target of experiment [3] is T1, CaT1. Briefly: Two-microelectrode voltage clamp of oocytes expressing CaT1. Format: cell-based. As to conditions: for currents evoked by metal ions / effect on Ca^2+-evoked currents: each at 100 μM; for current as percentage of the current evoked by 5 mM Ca^2+: 5 mM cation, EGTA-injected oocytes clamped at −50 mV, n=17. How it is done: (§1) Two-microelectrode voltage clamp experiments were performed using standard techniques (see Chen et al., J. Biol. Chem. 274:2773–2779 (1999)) using a commercial amplifier and pCLAMP software (Version 7, Axon Instruments, Inc., Foster City, Calif.). An oocyte was introduced into the chamber containing Ca^2+-free solution and was incubated for about 3 minutes before being clamped at −50 mV and subjected to measurements. In experiments involving voltage ramps or jumps, whole-cell current and voltage were recorded by digitizing at 300 μs/sample and by Bessel filtering at 10 kHz. When recording currents at a holding potential, digitization at 0.2 s/sample and filtering at 20 Hz were employed. Voltage ramping consisted of pre-holding at −150 mV for 200 ms to eliminate capacitive currents and a subsequent linear increase from −150 to +50 mV, with a total duration of […]. Voltage jumping consisted of 150 ms voltage pulses of between −140 and +60 mV, in increments of +20 mV. Steady-state currents were obtained as the average values in the interval from 135 to 145 ms after the initiation of the voltage pulses. For experiments involving voltage-clamped ^45Ca^2+ uptake, Ca^2+-evoked currents and uptake of ^45Ca^2+ were simultaneously measured at −50 mV, using a method similar to that described in Chen et al. (cited above).

The subject of experiment [4] is endogenous Ca^2+-activated chloride-channel currents. The experiment can be described thus: Block of the peak current in voltage-clamped oocytes by chloride channel blockers. Format: cell-based, Xenopus laevis. As to conditions: 5 mM Ca^2+; holding potential −50 mV. How it is done: as §1, with “above). […]” for “above).”

On to `C=C1/C(=C\C=C2/CCC[C@]3(C)[C@@H]([C@H](C)CCCC(C)(C)O)CC[C@@H]23)C[C@@H](O)C[C@@H]1O` [1,25-dihydroxyvitamin D3], for which, in experiment [1], the “regulation of CaT1 mRNA in rat duodenum” value is on record as “not regulated”.
Take `[Fe+3]` [Fe^3+]: the “inhibition of ^45Ca^2+ uptake by di- and trivalent cations” value in experiment [2] is reported as “no significant effects”. Moreover, in experiment [3], the “currents evoked by metal ions” value was “did not evoke measurable currents” and the “effect on Ca^2+-evoked currents” value is given as “no observable effects”.
For the molecule `[Na+]` [Na^+], the “Ca^2+ entry with extracellular Na^+” value in experiment [2] (non-clamped oocytes, Ca^2+ applied for 30 minutes) is given as “enhanced”. In addition, in experiment [3] (100 mM Na^+), the “Ca^2+-evoked currents in the presence versus absence of Na^+” value is “slightly lower”.
As to `[Ba+2]` [Ba^2+], the “inhibition of ^45Ca^2+ uptake” value in experiment [2] is listed as “only slight inhibitory effects”. Also, the “current as percentage of the current evoked by 5 mM Ca^2+” value in experiment [3] came to 12±2%.
Consider `[Gd+3]` [Gd^3+], for which the “inhibition of ^45Ca^2+ uptake by di- and trivalent cations” value in experiment [2] was “marked to moderate inhibition”. Moreover, in experiment [3], the “currents evoked by metal ions” value is “did not evoke measurable currents” and the “effect on Ca^2+-evoked currents” value is listed as “inhibited”.
For `COc1cc(CNC(=O)CCCC/C=C/C(C)C)ccc1O` [Capsaicin, capsaicin], in experiment [2] (capsaicin up to 50 μM), the “stimulation of CaT1-mediated ^45Ca^2+ uptake in oocytes” value is “did not stimulate”.
In the case of `[Ni+2]` [Ni^2+], in experiment [3], the “currents evoked by metal ions” value is given as “did not evoke measurable currents” and the “effect on Ca^2+-evoked currents” value was “inhibited”.
Consider `[Pb+2]` [Pb^2+], for which the “inhibition of ^45Ca^2+ uptake by di- and trivalent cations” value in experiment [2] is “marked to moderate inhibition”. Moreover, in experiment [3], the “currents evoked by metal ions” value is listed as “did not evoke measurable currents” and the “effect on Ca^2+-evoked currents” value is “inhibited”.
Taken in the same sequence, the figures for `[Cd+2]` [Cd^2+] were “marked to moderate inhibition”, “did not evoke measurable currents” and “inhibited”.
Take `O=C(O)CN(CCOCCOCCN(CC(=O)O)CC(=O)O)CC(=O)O` [EGTA, ethylene glycol-bis(β-aminoethylether)-N,N,N′,N′-tetraacetic acid]: in experiment [2] (EGTA injected into oocytes to a final concentration of 1–2 mM), the “increase in Ca^2+ uptake” value is listed as “three- to five-fold increase”. Moreover, the “effect on overshoot of Ca^2+-evoked inward current” value in experiment [3] (EGTA injected to a final concentration of 1–2 mM, −50 mV) was “abolished the overshoot”.
On to `[Sr+2]` [Sr^2+], for which the “inhibition of ^45Ca^2+ uptake” value in experiment [2] was “only slight inhibitory effects”. For the same molecule, the “current as percentage of the current evoked by 5 mM Ca^2+” value in experiment [3] stood at 20±4%.
Consider `[Zn+2]` [Zn^2+], for which, in experiment [3], the “currents evoked by metal ions” value is reported as “did not evoke measurable currents” and the “effect on Ca^2+-evoked currents” value is listed as “no observable effects”.
A word on the Km: it is the concentration of substrate that gives half-maximal velocity. As for `[Ca+2]` [Ca^2+], the Km in experiment [2] (CaT1 expressed in oocytes, read-out: apparent Michaelis constant (Km) of Ca^2+ uptake) was determined as 440 ± 70 µM. In experiment [3] (5 mM Ca^2+, holding potential −50 mV), the “plateau value of inward current” value was 20–50 nA.
Turning to `[Cu+2]` [Cu^2+], the “inhibition of ^45Ca^2+ uptake by di- and trivalent cations” value in experiment [2] is given as “marked to moderate inhibition”. Besides, in experiment [3], the “currents evoked by metal ions” value is “did not evoke measurable currents” and the “effect on Ca^2+-evoked currents” value is on record as “inhibited”.
On to `[Mn+2]` [Mn^2+], for which the “inhibition of ^45Ca^2+ uptake by di- and trivalent cations” value in experiment [2] is reported as “no significant effects”. In experiment [3], the “currents evoked by metal ions” value is given as “did not evoke measurable currents” and the “effect on Ca^2+-evoked currents” value is given as “no observable effects”.
Take `[Co+2]` [Co^2+]: in experiment [2], the “inhibition of ^45Ca^2+ uptake by di- and trivalent cations” value is on record as “marked to moderate inhibition”. In experiment [3], the “currents evoked by metal ions” value is “did not evoke measurable currents” and the “effect on Ca^2+-evoked currents” value is “inhibited”.
In the case of `[Mg+2]` [Mg^2+], in experiment [2], the “inhibition of ^45Ca^2+ uptake” value was “no significant inhibition”. Besides, the “blocker of CaT1” value in experiment [3] was “nor an effective blocker”. For the same molecule, the “substrate of CaT1” value in experiment [3] (up to 20 mM) is recorded as “neither a substrate”.
Turning to `[La+3]` [La^3+], in experiment [2], the “inhibition of ^45Ca^2+ uptake by di- and trivalent cations” value is on record as “marked to moderate inhibition”. Moreover, in experiment [3], the “currents evoked by metal ions” value is recorded as “did not evoke measurable currents” and the “effect on Ca^2+-evoked currents” value is given as “inhibited”.
For the molecule `O=C(O)c1ccccc1Nc1cccc(C(F)(F)F)c1` [flufenamate], in experiment [4], the “block of the peak current” value was “could be blocked”.
Consider `C/C=C(/C)C(=O)O[C@H]1C(C)=C2[C@H]([C@@H]1OC(=O)CCCCCCC)[C@@](C)(OC(C)=O)C[C@H](OC(=O)CCC)[C@@]1(O)[C@H]2OC(=O)[C@@]1(C)O` [thapsigargin], for which the “CaT1-mediated Ca^2+ activity relative to its baseline activity” value in experiment [2] (depletion of calcium stores by thapsigargin treatment) is recorded as “about 20%”.
